Patent publication US20100286164A1, “SUBSTITUTED ARYL ALKYLAMINO-OXY-ANALOGS AND USES THEREOF” (The Brigham and Women's Hospital, Inc, priority 2007, published 2010)

Each compound was assayed against T1, γ-secretase (N100FLAG Notch-based substrate) (Homo sapiens, UniProt P49768) (assay: In vitro γ-secretase assay, N-100 Flag (Notch-based substrate) cleavage). Details: effect on N-100 Flag cleavage; compounds tested in vitro at 100 μM.
T1 construct: made in house; host or cells: S-1 CHO cell line (Chinese hamster ovary)
Assay type: biochemical
Description: (§1) Purification of γ-Secretase and in Vitro γ-Secretase Assays—The following procedures can be used to isolate γ-secretase and measure its enzymatic activity. The multistep procedure for the high grade purification of human γ-secretase from the S-1 cells is performed as described previously (Fraering, P. C., et al. (2004) Biochemistry 43, 9774-9789). In vitro γ-secretase assays using the recombinant APP-based substrate C100FLAG and the recombinant Notch-based substrate N100FLAG are performed as reported previously (Esler, W. P., Kimberly, W. T., Ostaszewski, B. L., Ye, W., Diehl, T. S., Selkoe, D. J., and Wolfe, M. S. (2002) Proc. Natl. Acad. Sci. U.S.A. 99, 2720-2725, Kimberly, W. T., et al. (2003) Biochemistry 42, 137-144). Basically, the proteolytic reaction mixtures contain C100FLAG and N100FLAG substrate at a concentration of 1 μm, purified γ-secretase solubilized in 0.2% CHAPSO/HEPES, pH 7.5, at 10-fold dilution from stock (stock=the M2 anti-FLAG-eluted fraction in the purification protocol from S-1 cells (Fraering, P. C., et al. (2004) Biochemistry 43, 9774-9789)), 0.025% phosphatidylethanolamine (PE), and 0.10% phosphatidylcholine (PC). All the reactions are stopped by adding 0.5% SDS, and the samples are assayed for Aβ40 and Aβ42 by ELISA as described (Xia, W., Zhang, J., Ostaszewski, B. L., Kimberly, W. T., Seubert, P., Koo, E. H., Shen, J., and Selkoe, D. J. (1998) Biochemistry 37, 16465-16471). The capture antibodies are 2G3 (to Aβ residues 33-40) for the Aβ40 species and 21F12 (to Aβ residues 33-42) for the Aβ42 species.
(§2) Western Blotting and Antibodies—The following assay can be used to determine the extent to which the compounds of interest modulate the cleavage of APP and the Notch receptor. For Western analysis of PS1-NTF, PS1-CTF, Aph1α2-HA, FLAG-Pen-2, and NCT-GST, the samples are run on 4-20% Tris-glycine polyacrylamide gels, transferred to polyvinylidene difluoride, and can be probed with Ab14 (for PS1-NTF, 1:2000; a gift of S. Gandy), 13A11 (for PS1-CTF, 5 μg/ml; a gift of Elan Pharmaceuticals), 3F10 (for Aph1α2-HA, 50 ng/ml; Roche Applied Science), anti-FLAG M2 (for FLAG-Pen-2, 1:1000; Sigma), or αGST antibodies (for NCT-GST, 1:3000; Sigma). Samples from the γ-secretase activity assays (above) are run on 4-20% Tris-glycine gels and can be transferred to polyvinylidene difluoride membranes to detect AICD-FLAG with anti-FLAG M2 antibodies (1:1000, Sigma) and NICD-FLAG with Notch Ab1744 antibody (1:1000, Cell Signaling Technology), which is selective for the N terminus of NICD; the same samples are transferred to nitrocellulose membranes to detect Aβ with the anti-Aβ 6E10 antibody. Levels of AICD-FLAG and NICD-FLAG are estimated by densitometry using AlphaEase/Spot Denso (Alpha Innotech Corp.).
(§3) Naphthyl Amine Alcohol Analogs and Assay Data—Compounds listed in Table 2 may be assayed as described herein (e.g., in Examples 3 and 4) and the specificity may be evaluated by comparing the relative inhibitions of C-100 Flag and N-100 Flag cleavage. The potency of the inhibitor may be evaluated with an Aβ1-40 ELISA assay (e.g., using an Aβ40 ELISA kit available from Invitrogen, Carlsbad, Calif.). […] The following table indicates the properties of certain compounds of the invention that were assayed as described herein. (INH=Inhibits)

Row | Structure (SMILES) | γ-Secretase Assay N-100 Flag
1 | OC(CCN1CCN(c2ccccc2)CC1)c1ccc2ccccc2c1 (stereo not shown) [Example 3] | Enh
2 | CC(C)N(CCC(O)c1ccc(C(F)(F)F)cc1)Cc1ccccc1 (stereo not shown) [Example 41] | Enh

The compounds below were run against T2, γ-secretase (Aβ1-40 production) (Homo sapiens, UniProt P49768) (assay: γ-Secretase assay, Aβ1-40 ELISA). Details: 50 μM.
T2 construct: made in house; host or cells: S-1 CHO cell line (Chinese hamster ovary)
Assay type: biochemical
Description: as §1, §3

Row | Structure (SMILES) | inhibition at 50 µM [%]
3 | C[C@@H](CN1CCN(c2ccc(F)cc2)CC1)[C@H](O)c1ccc2ccccc2c1 [Example 89] | 9
4 | C[C@H](CN1CCN(c2ccc(F)cc2)CC1)[C@H](O)c1ccc2ccccc2c1 [Example 90] | 0

Same assay, conditions: 100 μM

Row | Structure (SMILES) | inhibition at 100 µM [%] | γ-Secretase Assay ELISA % Inhibition [100 μM] Aβ1-40 [%]
5 | COc1ccc(N2CCN(CCC(O)c3ccc4ccccc4c3)CC2)cc1 (stereo not shown) [Example 2] | 0 | –
6 | OC(CCN1CCN(c2ccccc2)CC1)c1ccc2ccccc2c1 (stereo not shown) [Example 3] | 0 | –
7 | CC(C)N(CCC(O)c1ccccc1)Cc1ccccc1 (stereo not shown) [Example 4] | 10 | –
8 | OC(CCN(Cc1ccccc1)Cc1ccccc1)c1ccc2ccccc2c1 (stereo not shown) [Example 5] | 32 | –
9 | OC(CCN1CCCCCCC1)c1ccc2ccccc2c1 (stereo not shown) [Example 6] | 20 | –
10 | OC(CCN(C1CCCCC1)C1CCCCC1)c1ccc2ccccc2c1 (stereo not shown) [Example 7] | 7 | –
11 | CN(CCC(O)c1ccc2ccccc2c1)Cc1ccccc1 (stereo not shown) [Example 8] | – | 15
12 | CC(C)CN(CCC(O)c1ccc2ccccc2c1)CC(C)C (stereo not shown) [Example 9] | 0 | –
13 | OC(CCNc1ccccc1)c1ccc2ccccc2c1 (stereo not shown) [Example 10] | 0 | –
14 | CC(C)(C)N(CCC(O)c1ccc2ccccc2c1)Cc1ccccc1 (stereo not shown) [Example 11] | 0 | –
15 | CCN(CCC(O)c1ccc2ccccc2c1)Cc1ccccc1 (stereo not shown) [Example 12] | 0 | –
16 | CN(CCc1ccccc1)CCC(O)c1ccc2ccccc2c1 (stereo not shown) [Example 15] | 27 | –
17 | OC(CCN1CCC2(CC1)OCCO2)c1ccc2ccccc2c1 (stereo not shown) [Example 16] | 2 | –
18 | OC(CCNc1ccc2c(c1)OCCO2)c1ccc2ccccc2c1 (stereo not shown) [Example 21] | 0 | –
19 | OC(CCNc1ccc(C2CCCCC2)cc1)c1ccc2ccccc2c1 (stereo not shown) [Example 22] | 0 | –
20 | OC(CCNc1ccc(Cl)c(Cl)c1)c1ccc2ccccc2c1 (stereo not shown) [Example 23] | 0 | –
21 | OC(CCNc1ccc(C(F)(F)F)cc1)c1ccc2ccccc2c1 (stereo not shown) [Example 24] | 0 | –
22 | COc1ccc(NCCC(O)c2ccc3ccccc3c2)cc1 (stereo not shown) [Example 25] | 0 | –
23 | CN(CCC(O)c1ccc2ccccc2c1)c1ccc(Oc2ccccc2)cc1 (stereo not shown) [Example 26] | 6 | –
24 | CC(C)N(CCC(O)c1ccc2ccccc2c1)c1ccc(Cl)cc1 (stereo not shown) [Example 27] | 0 | –

Row | Structure (SMILES) | inhibition at 100 µM [%] | γ-Secretase Assay ELISA % Inhibition [100 μM] Aβ1-40 [%]
25 | OC(CCNc1cc(F)ccc1F)c1ccc2ccccc2c1 (stereo not shown) [Example 28] | 0 | –
26 | COc1ccc(CN(CCC(O)c2ccc3ccccc3c2)C(C)C)cc1 (stereo not shown) [Example 29] | 55 | –
27 | CC(C)N(CCC(O)c1ccc2ccccc2c1)Cc1ccc(C#N)cc1 (stereo not shown) [Example 34] | 19 | –
28 | COc1cc(CN(CCC(O)c2ccc3ccccc3c2)C(C)C)cc(OC)c1 (stereo not shown) [Example 35] | 17 | –
29 | CC(C)N(CCC(O)c1ccc2ccccc2c1)Cc1cccc(C#N)c1 (stereo not shown) [Example 36] | 7 | –
30 | OC(CCN(Cc1ccccc1)C1CC1)c1ccc2ccccc2c1 (stereo not shown) [Example 37] | 36 | –
31 | CC(C)N(CCC(O)c1ccc(F)cc1)Cc1ccccc1 (stereo not shown) [Example 38] | 17 | –
32 | OC(CCN1CCN(c2ccc(F)cc2)CC1)c1ccc(C(F)(F)F)cc1 (stereo not shown) [Example 39] | 14 | –
33 | CC(C)(C)c1ccc(C(O)CCN2CCN(c3ccc(F)cc3)CC2)cc1 (stereo not shown) [Example 40] | 46 | –
34 | CC(C)N(CCC(O)c1ccc(C(F)(F)F)cc1)Cc1ccccc1 (stereo not shown) [Example 41] | 27 | –
35 | CC(C)N(CCC(O)c1ccc2ccccc2c1)Cc1ccc(F)c(Cl)c1 (stereo not shown) [Example 43] | 0 | –
36 | CC(C)N(CCCC(O)c1cccc2ccccc12)Cc1ccccc1 (stereo not shown) [Example 45] | 0 | –
37 | CC(C)N(CCCC(O)c1ccc2ccccc2c1)Cc1ccccc1 (stereo not shown) [Example 46] | 2 | –
38 | OC(CCN1CCN(Cc2ccccc2)CC1)c1ccc2ccccc2c1 (stereo not shown) [Example 47] | 0 | –
39 | Cc1cc(C)c(C(O)CCN(Cc2ccccc2)C(C)C)c(C)c1 (stereo not shown) [Example 49] | 0 | –
40 | CC(C)N(CCC(O)c1ccc(OC2CCCCO2)cc1)Cc1ccccc1 (stereo not shown) [Example 50] | 0 | –
41 | COc1ccc2cc(C(O)CCN(Cc3ccccc3)C(C)C)ccc2c1 (stereo not shown) [Example 51] | 10 | –
42 | CC(C)N(CCC(O)c1ccc(Oc2ccccc2)cc1)Cc1ccccc1 (stereo not shown) [Example 52] | 24 | –
43 | CC(C)N(CCC(O)c1cccc(OCc2ccccc2)c1)Cc1ccccc1 (stereo not shown) [Example 53] | 31 | –
44 | CC(C)N(CCC(O)c1ccc(OC(F)(F)F)cc1)Cc1ccccc1 (stereo not shown) [Example 58] | 1 | –

Row | Structure (SMILES) | inhibition at 100 µM [%] | γ-Secretase Assay ELISA % Inhibition [100 μM] Aβ1-40 [%]
45 | COc1ccc(C(O)CCN(Cc2ccccc2)C(C)C)cc1OC (stereo not shown) [Example 59] | 0 | –
46 | COc1ccc(C(O)CCN(Cc2ccccc2)C(C)C)cc1F (stereo not shown) [Example 60] | 0 | –
47 | CC(C)N(CCC(O)c1ccccc1CN1CCCCC1)Cc1ccccc1 (stereo not shown) [Example 61] | 0 | –
48 | CC(C)N(CCC(O)c1ccc2c(c1)OCO2)Cc1ccccc1 (stereo not shown) [Example 62] | 0 | –
49 | Cc1ccc(C(O)CCN(Cc2ccccc2)C(C)C)cc1C (stereo not shown) [Example 63] | 0 | –
50 | CC(C)N(CCC(O)c1ccc(C#N)cc1)Cc1ccccc1 (stereo not shown) [Example 64] | 6 | –
51 | CC(C)N(CCC(O)c1ccc2ccccc2c1)Cc1ccc(C(=O)O)cc1 (stereo not shown) [Example 66] | 2 | –
52 | CC(C)N(CCC(O)c1ccc(C(=O)O)cc1)Cc1ccccc1 (stereo not shown) [Example 67] | 27 | –
53 | COc1cccc2cc(C(O)CCN(Cc3ccccc3)C(C)C)oc12 (stereo not shown) [Example 70] | 0 | –
54 | CC(C)N(CC[C@H](O)c1ccc2ccccc2c1)Cc1ccccc1 [Example 76] | 17 | –
55 | OC(CCNc1ccc(Oc2ccccc2)cc1)c1ccc2ccccc2c1 (stereo not shown) [Example 77] | 48 | –
56 | Cc1ccc(NCCC(O)c2ccc3ccccc3c2)cc1F (stereo not shown) [Example 78] | 0 | –
57 | CCOc1ccc(NCCC(O)c2ccc(F)cc2)cc1 (stereo not shown) [Example 79] | 0 | –
58 | COc1ccc(NCCC(O)c2ccc(Cl)cc2)cc1 (stereo not shown) [Example 80] | 0 | –
59 | COC(CCN(Cc1ccccc1)C(C)C)c1ccc2ccccc2c1 (stereo not shown) [Example 84] | 51 | –
60 | CC(C)N(CCC(Oc1ccc(C(F)(F)F)cc1)c1ccc2ccccc2c1)Cc1ccccc1 (stereo not shown) [Example 85] | 50 | –
61 | COC(CCN(Cc1ccccc1)C(C)C)c1ccc2cc(C(O)CCN(Cc3ccccc3)C(C)C)ccc2c1 (stereo not shown) [Example 86] | 12 | –
62 | CC(CN(Cc1ccccc1)C(C)C)C(O)c1ccc2ccccc2c1 (stereo not shown) [Example 87] | – | 22
63 | CC(CN(Cc1ccccc1)C(C)C)C(O)c1ccc2ccccc2c1 (stereo not shown) [Example 88] | – | 66

These compounds were tested against T3, γ-secretase (C100FLAG APP-based substrate) (Homo sapiens, UniProt P49768) (assay: In vitro γ-secretase assay, C-100 Flag (APP-based substrate) cleavage). Details: effect on C-100 Flag cleavage; compounds tested in vitro at 100 μM.
T3 construct: made in house; host or cells: S-1 CHO cell line (Chinese hamster ovary)
Assay type: biochemical
Description: as §1, §2, §3

Row | Structure (SMILES) | γ-Secretase Assay C-100 Flag
64 | COc1ccc(N2CCN(CCC(O)c3ccc4ccccc4c3)CC2)cc1 (stereo not shown) [Example 2] | No change (NC)
65 | OC(CCNc1ccccc1)c1ccc2ccccc2c1 (stereo not shown) [Example 10] | Enh
66 | CCN(CCC(O)c1ccc2ccccc2c1)Cc1ccccc1 (stereo not shown) [Example 12] | Enh
67 | COc1ccc(CN(CCC(O)c2ccc3ccccc3c2)C(C)C)cc1 (stereo not shown) [Example 29] | Inh
68 | OC(CCNc1ccc(Oc2ccccc2)cc1)c1ccc2ccccc2c1 (stereo not shown) [Example 77] | Inh
69 | Cc1ccc(NCCC(O)c2ccc3ccccc3c2)cc1F (stereo not shown) [Example 78] | Enh
70 | CCOc1ccc(NCCC(O)c2ccc(F)cc2)cc1 (stereo not shown) [Example 79] | Enh
71 | COc1ccc(NCCC(O)c2ccc(Cl)cc2)cc1 (stereo not shown) [Example 80] | Enh
72 | COC(CCN(Cc1ccccc1)C(C)C)c1ccc2ccccc2c1 (stereo not shown) [Example 84] | Inh
73 | CC(CN(Cc1ccccc1)C(C)C)C(O)c1ccc2ccccc2c1 (stereo not shown) [Example 88] | Inh
